Data reported in US8785488B2 (Exelixis Patent Company LLC, priority 2009, dated 2014).

Tests used:
h-TGR5 = molecular target: T1, h-TGR5 (Homo sapiens, UniProt Q8TDU6); experiment: TGR5 cAMP Assay using Cisbio cAMP Dynamic2 htrf kit (hTGR5CRE-luc HEK 293 cells); format: cell-based; conditions: h-TGR5 cAMP EC50, Table 1; read-out: cAMP (EC50)
T1 construct: expressed in transfected cells
T1 sequence (Q8TDU6 1-330): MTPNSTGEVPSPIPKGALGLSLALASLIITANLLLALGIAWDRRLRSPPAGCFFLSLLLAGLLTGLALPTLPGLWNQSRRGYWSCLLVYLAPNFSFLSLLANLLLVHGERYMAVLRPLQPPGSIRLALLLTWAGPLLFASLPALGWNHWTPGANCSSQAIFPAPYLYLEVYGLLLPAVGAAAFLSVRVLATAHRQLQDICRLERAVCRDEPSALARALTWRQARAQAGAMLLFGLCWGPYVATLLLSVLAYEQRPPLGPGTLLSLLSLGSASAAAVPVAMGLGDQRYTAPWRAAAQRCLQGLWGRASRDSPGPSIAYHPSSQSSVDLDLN
How it was run: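 […], 4000 hTGR5CRE-luc HEK 293 cells per well, with 0.5 mM IBMX and d2-cAMP, were incubated 30 min at room temperature with compounds in 8-point half-log series, in quadruplicate.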

human TGR5 (h-TGR5) = molecular target: T2, human TGR5 (h-TGR5) (Homo sapiens, UniProt Q8TDU6); experiment: TGR5/CRE-Luciferiase Assay (HEK 293 hTGR5/CRE-Luc cells); format: cell-based; conditions: h-TGR5 CRE-Luc EC50, Table 1; read-out: CRE-Luc (EC50)
T2 construct: expressed in transfected cells
T2 sequence (Q8TDU6 1-330): T1 sequence (Q8TDU6 1-330)
How it was run: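 HEK293 cells stably carrying hTGR5 and a CRE-luciferase reporter were exposed to serially diluted compounds (diluted in DMEM with 5% DMSO) for 6 h. Cells were then lysed in luciferase buffer, luminescence was read, and EC50 values were derived from dose-response curves.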

Row | EC50 (h-TGR5) [µM] | EC50 (human TGR5 (h-TGR5)) [µM] | SMILES
1 | 0.1 to 1 | 0.1 to 1 | CC(C)NC(=O)NS(=O)(=O)c1ccc(CSc2ncc(C(C)(C)c3ccc(F)c(C#N)c3)n2-c2ccc(F)cc2)c(Cl)c1 [3-chloro-4-[({5-[1-(3-cyano-4-fluorophenyl)-1-methylethyl]-1-(4-fluorophenyl)-1H-imidazol-2-yl}thio)methyl]-N-{[(1-methylethyl)amino]carbonyl}benzenesulfonamide]
2 | 0.1 to 1 | 0.1 to 1 | COc1cc(-n2c(C(C)(C)c3ccc(F)c(C#N)c3)cnc2SCc2ccc(S(=O)(=O)NC(=O)NN3CCCC3)cc2Cl)ccc1F [3-chloro-4-[({5-[1-(3-cyano-4-fluorophenyl)-1-methylethyl]-1-[4-fluoro-3-(methyloxy)phenyl]-1H-imidazol-2-yl}thio)methyl]-N-[(pyrrolidin-1-ylamino)carbonyl]benzenesulfonamide]
3 | < 0.1 | < 0.1 | COc1cc(-n2c(C(C)(C)c3ccc(F)c(C#N)c3)cnc2SCc2ccc(S(=O)(=O)NC(=O)NC(C)C)cc2Cl)ccc1F [3-chloro-4-[({5-[1-(3-cyano-4-fluorophenyl)-1-methylethyl]-1-[4-fluoro-3-(methyloxy)phenyl]-1H-imidazol-2-yl}thio)methyl]-N-{[(1-methylethyl)amino]carbonyl}benzenesulfonamide]
4 | 0.1 to 1 | 0.1 to 1 | Cc1cc(-n2c(C(C)(C)c3ccc(Cl)c(Cl)c3)cnc2SCc2ccc(S(=O)(=O)NC(=O)NN3CCCC3)cc2Cl)ccc1F [3-chloro-4-[({5-[l-(3,4-dichlorophenyl)-1-methylethyl]-1-(4-fluoro-3-methylphenyl)-1H-imidazol-2-yl}thio)methyl]-N-[(pyrrolidin-1-ylamino)carbonyl]benzenesulfonamide]
5 | 1 to 10 | 0.1 to 1 | COc1cc(-n2c(C(C)(C)c3ccc(S(C)(=O)=O)cc3)cnc2SCc2ccc(S(=O)(=O)NC(=O)NN3CCCC3)cc2Cl)ccc1F [3-chloro-4-{[(1-[4-fluoro-3-(methyloxy)phenyl]-5-{1-methyl-1-[4-(methylsulfonyl)phenyl]ethyl}-1H-imidazol-2-yl)thio]methyl}-N-[(pyrrolidin-1-ylamino)carbonyl]benzenesulfonamide]
6 | 0.1 to 1 | 0.1 to 1 | CC(C)(c1ccc(Cl)c(Cl)c1)c1cnc(SCc2c(F)cc(C(=O)O)cc2Cl)n1-c1ccc(F)c(OCCCO)c1 [3-chloro-4-{[(5-[1-(3,4-dichlorophenyl)-1-methylethyl]-1-{4-fluoro-3-[(3-hydroxypropyl)oxy]phenyl}-1H-imidazol-2-yl)thio]methyl}-5-fluorobenzoic acid]
7 | 0.1 to 1 | 0.1 to 1 | COc1cc(-n2c(C(C)(C)c3ccc(S(C)(=O)=O)c(Cl)c3)cnc2SCc2ccc(S(=O)(=O)NC(=O)NN3CCCC3)cc2Cl)ccc1F [3-chloro-4-{[(5-{1-[3-chloro-4-(methylsulfonyl)phenyl]-1-methylethyl}-1-[4-fluoro-3-(methyloxy)phenyl]-1H-imidazol-2-yl)thio]methyl}-N-[(pyrrolidin-1-ylamino)carbonyl]benzenesulfonamide]
8 | 0.1 to 1 | 0.1 to 1 | COc1cc(C(C)(C)c2cnc(SCc3ccc(S(=O)(=O)NC(=O)NN4CCCC4)cc3Cl)n2-c2ccc(F)c(CO)c2)ccc1Cl [3-chloro-4-{[(5-{1-[4-chloro-3-(methyloxy)phenyl]-1-methylethyl}-1-[4-fluoro-3-(hydroxymethyl)phenyl]-1H-imidazol-2-yl)thio]methyl}-N-[(pyrrolidin-1-ylamino)carbonyl]benzenesulfonamide]
9 | < 0.1 | < 0.1 | COc1cc(-n2c(C(C)(C)c3ccc(Cl)c(OC)c3)cnc2SCc2ccc(S(=O)(=O)NC(=O)NN3CCCC3)cc2Cl)ccc1F [3-chloro-4-{[(5-{1-[4-chloro-3-(methyloxy)phenyl]-1-methylethyl}-1-[4-fluoro-3-(methyloxy)phenyl]-1H-imidazol-2-yl)thio]methyl}-N-[(pyrrolidin-1-ylamino)carbonyl]benzenesulfonamide]
10 | 1 to 10 | 1 to 10 | COc1cc(C(C)(C)c2cnc(SCc3c(F)cc(C(=O)O)cc3Cl)n2-c2cccnc2)ccc1Cl [3-chloro-4-{[(5-{1-[4-chloro-3-(methyloxy)phenyl]-1-methylethyl}-1-pyridin-3-yl-1H-imidazol-2-yl)thio]methyl}-5-fluorobenzoic acid]
11 | < 0.1 | < 0.1 | COc1cc(-n2c(C(C)(C)c3ccc(F)c(Cl)c3)cnc2SCc2c(F)cc(CCCN(C)C)cc2F)ccc1F [3-{4-[({5-[1-(3-chloro-4-fluorophenyl)-1-methylethyl]-1-[4-fluoro-3-(methyloxy)phenyl]-1H-imidazol-2-yl}thio)methyl]-3,5-difluorophenyl}-N,N-dimethylpropan-1-amine]
12 | < 0.1 | < 0.1 | COc1cc(-n2c(C(C)(C)c3ccc(S(N)(=O)=O)c(Cl)c3)cnc2SCc2ccc(S(N)(=O)=O)cc2Cl)ccc1F [4-(1-{2-({[4-(aminosulfonyl)-2-chlorophenyl]methyl}thio)-1-[4-fluoro-3-(methyloxy)phenyl]-1H-imidazol-5-yl}-1-methylethyl)-2-chlorobenzenesulfonamide]
13 | < 0.1 | < 0.1 | COc1cc(C(C)(C)c2cnc(SCc3c(F)cc(C(=O)NCCCC(=O)O)cc3Cl)n2-c2ccc(F)cc2)ccc1Cl [4-({[3-chloro-4-({[5-{1-[4-chloro-3-(methyloxy)phenyl]-1-methylethyl}-1-(4-fluorophenyl)-1H-imidazol-2-yl]thio}methyl)-5-fluorophenyl]carbonyl}amino)butanoic acid]
14 | 1 to 10 | < 0.1 | COc1cc(C(C)(C)c2c(Cl)nc(SCC3CCN(c4nnn[nH]4)CC3)n2-c2ccc(F)cc2)ccc1Cl [4-({[4-chloro-5-{1-[4-chloro-3-(methyloxy)phenyl]-1-methylethyl}-1-(4-fluorophenyl)-1H-imidazol-2-yl]thio}methyl)-1-(1H-tetrazol-5-yl)piperidine]
15 | 0.1 to 1 | 0.1 to 1 | COc1cc(C(C)(C)c2c(Cl)nc(SCC3CCN(S(C)(=O)=O)CC3)n2-c2ccc(F)cc2)ccc1Cl [4-({[4-chloro-5-{1-[4-chloro-3-(methyloxy)phenyl]-1-methylethyl}-1-(4-fluorophenyl)-1H-imidazol-2-yl]thio}methyl)-1-(methylsulfonyl)piperidine]
16 | < 0.1 | 0.1 to 1 | COc1ccc(C(C)(C)c2cnc(SCc3ccc(C(N)=O)cc3F)n2-c2ccc(F)cc2)cc1OC [4-({[5-{1-[3,4-bis(methyloxy)phenyl]-1-methylethyl}-1-(4-fluorophenyl)-1H-imidazol-2-yl]thio}methyl)-3-fluorobenzamide]
17 | 0.1 to 1 | 0.1 to 1 | CC(C)(c1ccc(Cl)c(S(N)(=O)=O)c1)c1cnc(SCc2c(F)cc(C(=O)O)cc2Cl)n1-c1ccc(F)cc1 [4-({[5-{1-[3-(aminosulfonyl)-4-chlorophenyl]-1-methylethyl}-1-(4-fluorophenyl)-1H-imidazol-2-yl]thio}methyl)-3-chloro-5-fluorobenzoic acid]
18 | < 0.1 | < 0.1 | COc1ccc(C(C)(C)c2cnc(SCc3c(F)cc(C(=O)O)cc3F)n2-c2ccc(F)cc2)cc1Cl [4-({[5-{1-[3-chloro-4-(methyloxy)phenyl]-1-methylethyl}-1-(4-fluorophenyl)-1H-imidazol-2-yl]thio}methyl)-3,5-difluorobenzoic acid]
19 | < 0.1 | < 0.1 | COc1ccc(C(C)(C)c2cnc(SCc3c(F)cc(C#N)cc3F)n2-c2ccc(F)cc2)cc1Cl [4-({[5-{1-[3-chloro-4-(methyloxy)phenyl]-1-methylethyl}-1-(4-fluorophenyl)-1H-imidazol-2-yl]thio}methyl)-3,5-difluorobenzonitrile]
20 | 0.1 to 1 | 0.1 to 1 | COc1cc(C(C)(C)c2cnc(SCc3ccc(S(=O)(=O)NC(=O)NN4CCCC4)cc3Cl)n2-c2ccc(F)cc2)ccc1S(N)(=O)=O [4-({[5-{1-[4-(aminosulfonyl)-3-(methyloxy)phenyl]-1-methylethyl}-1-(4-fluorophenyl)-1H-imidazol-2-yl]thio}methyl)-3-chloro-N-[(pyrrolidine-1-ylamino)carbonyl]benzenesulfonamide]
21 | < 0.1 | < 0.1 | CC(C)(c1ccc(S(N)(=O)=O)c(Cl)c1)c1cnc(SCc2c(F)cc(C(=O)O)cc2F)n1-c1ccc(F)c(F)c1 [4-({[5-{1-[4-(aminosulfonyl)-3-chlorophenyl]-1-methylethyl}-1-(3,4-difluorophenyl)-1H-imidazol-2-yl]thio}methyl)-3,5-difluorobenzoic acid]
22 | 0.1 to 1 | 0.1 to 1 | CC(C)(c1ccc(S(N)(=O)=O)c(Cl)c1)c1cnc(SCc2ccc(S(=O)(=O)NC(=O)NN3CCOCC3)cc2Cl)n1-c1ccc(F)c(F)c1 [4-({[5-{1-[4-(aminosulfonyl)-3-chlorophenyl]-1-methylethyl}-1-(3,4-difluorophenyl)-1H-imidazol-2-yl]thio}methyl)-3-chloro-N-[(morpholin-4-ylamino)carbonyl]benzenesulfonamide]
